Laboratory results reported in patent US6667313B1, “8-substituted-6-triflouromethyl-9-pyrido [3,2-G] quinoline compounds as androgen receptor modulators” (Ligand Pharmaceuticals Inc., priority 1999, dated 2003).

Columns and labels:
[1] = target: T1, ER (Homo sapiens, UniProt P03372); assay: Co-transfection assay, ER agonist; assay type: cell-based; conditions: Table 2; read-out: ER Potency Agon
T1 construct: expressed in transfected cells; host or cells: CV-1 cells (inferred: the only cells described for the co-transfection assay)
T1 sequence (P03372 1-595): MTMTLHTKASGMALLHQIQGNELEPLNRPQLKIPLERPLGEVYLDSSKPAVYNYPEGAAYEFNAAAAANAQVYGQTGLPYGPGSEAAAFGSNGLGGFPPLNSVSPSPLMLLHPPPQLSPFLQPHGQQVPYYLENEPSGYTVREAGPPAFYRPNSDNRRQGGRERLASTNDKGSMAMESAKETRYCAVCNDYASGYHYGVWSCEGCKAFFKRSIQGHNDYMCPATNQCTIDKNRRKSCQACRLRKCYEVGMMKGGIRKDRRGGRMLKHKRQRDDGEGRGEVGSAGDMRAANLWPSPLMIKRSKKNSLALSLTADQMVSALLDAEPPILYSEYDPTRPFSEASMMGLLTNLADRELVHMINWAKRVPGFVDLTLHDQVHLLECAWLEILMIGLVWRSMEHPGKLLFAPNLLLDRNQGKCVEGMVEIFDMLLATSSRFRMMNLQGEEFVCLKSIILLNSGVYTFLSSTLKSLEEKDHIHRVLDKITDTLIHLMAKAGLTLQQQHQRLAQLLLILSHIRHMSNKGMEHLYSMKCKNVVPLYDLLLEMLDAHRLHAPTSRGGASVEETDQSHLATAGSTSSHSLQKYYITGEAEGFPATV

[2] = target: T1, ER; assay: Co-transfection assay, ER antagonist; assay type: cell-based; conditions: Table 2; read-out: ER Potency Antag

Structure (SMILES): CC(C)(O)C(=O)Nc1ccc([N+](=O)[O-])c(C(F)(F)F)c1 [Flut]
- EC50 [1]: > 10 µM
- IC50 [2]: > 10 µM
